PubChem BioAssay (NCI)
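Test compounds were applied to cells in 96-well plates for 48 hours at 5 doses. TGI denotes the concentration required for complete inhibition of growth.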

Legend:
Assay in all cases: NCI-60 cell line screen, 48 h
786-0 renal = test system: 786-0 renal
A498 renal = test system: A498 renal
A549 NSCLC = test system: A549 NSCLC
ACHN renal = test system: ACHN renal
CAKI-1 renal = test system: CAKI-1 renal
CCRF-CEM leukemia = test system: CCRF-CEM leukemia
COLO 205 colon = test system: COLO 205 colon
DLD-1 colon = test system: DLD-1 colon
DMS 114 small cell lung = test system: DMS 114 small cell lung
DMS 273 small cell lung = test system: DMS 273 small cell lung
EKVX NSCLC = test system: EKVX NSCLC
HCC-2998 colon = test system: HCC-2998 colon
HCT-116 colon = test system: HCT-116 colon
HCT-15 colon = test system: HCT-15 colon
HL-60(TB) leukemia = test system: HL-60(TB) leukemia
HOP-18 NSCLC = test system: HOP-18 NSCLC
HOP-62 NSCLC = test system: HOP-62 NSCLC
HOP-92 NSCLC = test system: HOP-92 NSCLC
HT29 colon = test system: HT29 colon
IGROV1 ovarian = test system: IGROV1 ovarian
K-562 leukemia = test system: K-562 leukemia
KM12 colon = test system: KM12 colon
KM20L2 colon = test system: KM20L2 colon
LOX IMVI melanoma = test system: LOX IMVI melanoma
LXFL 529 NSCLC = test system: LXFL 529 NSCLC
M14 melanoma = test system: M14 melanoma
M19-MEL melanoma = test system: M19-MEL melanoma
MALME-3M melanoma = test system: MALME-3M melanoma
MOLT-4 leukemia = test system: MOLT-4 leukemia
NCI-H226 lung = test system: NCI-H226 lung
NCI-H23 lung = test system: NCI-H23 lung
NCI-H460 lung = test system: NCI-H460 lung
NCI-H522 lung = test system: NCI-H522 lung
OVCAR-3 ovarian = test system: OVCAR-3 ovarian
OVCAR-4 ovarian = test system: OVCAR-4 ovarian
OVCAR-5 ovarian = test system: OVCAR-5 ovarian
OVCAR-8 ovarian = test system: OVCAR-8 ovarian
RXF 393 renal = test system: RXF 393 renal
SF-268 CNS = test system: SF-268 CNS
SF-295 CNS = test system: SF-295 CNS
SF-539 CNS = test system: SF-539 CNS
SK-MEL-2 melanoma = test system: SK-MEL-2 melanoma
SK-MEL-28 melanoma = test system: SK-MEL-28 melanoma
SK-MEL-5 melanoma = test system: SK-MEL-5 melanoma
SK-OV-3 ovarian = test system: SK-OV-3 ovarian
SN12C renal = test system: SN12C renal
SNB-19 CNS = test system: SNB-19 CNS
SNB-75 CNS = test system: SNB-75 CNS
SNB-78 CNS = test system: SNB-78 CNS
SR leukemia = test system: SR leukemia
SW-620 colon = test system: SW-620 colon
TK-10 renal = test system: TK-10 renal
U251 CNS = test system: U251 CNS
UACC-257 melanoma = test system: UACC-257 melanoma
UACC-62 melanoma = test system: UACC-62 melanoma
UO-31 renal = test system: UO-31 renal

Molecule `Cc1nc(Nc2ccc(Cl)cc2)sc1C(=O)NNC(=O)C(=O)NN` has a TGI (786-0 renal) of 32 µM, a TGI (A498 renal) of 29.5 µM and a TGI (A549 NSCLC) of 37.9 µM. It also gave a TGI (ACHN renal) of 49.4 µM, a TGI (CAKI-1 renal) of 49.3 µM and a TGI (CCRF-CEM leukemia) of 52.8 µM. For the same molecule, the TGI (COLO 205 colon) was 35.8 µM, the TGI (DLD-1 colon) was 32.9 µM and the TGI (DMS 114 small cell lung) was 40.7 µM. For the same molecule, the TGI (DMS 273 small cell lung) was 33.9 µM, the TGI (EKVX NSCLC) was 30.6 µM and the TGI (HCC-2998 colon) was 35.5 µM. The TGI (HCT-116 colon) was 33.9 µM, the TGI (HCT-15 colon) was 31.6 µM and the TGI (HL-60(TB) leukemia) was 41 µM. It also gave a TGI (HOP-18 NSCLC) of 37.1 µM, a TGI (HOP-62 NSCLC) of 35.9 µM and a TGI (HOP-92 NSCLC) of 36.4 µM. For the same molecule, the TGI (HT29 colon) was 31.2 µM, the TGI (IGROV1 ovarian) was 33.7 µM and the TGI (K-562 leukemia) was 51.4 µM. For the same molecule, the TGI (KM12 colon) was 36 µM, the TGI (KM20L2 colon) was 30 µM and the TGI (LOX IMVI melanoma) was 32.3 µM. For the same molecule, the TGI (LXFL 529 NSCLC) was 33.6 µM, the TGI (M14 melanoma) was 34 µM and the TGI (M19-MEL melanoma) was 35.6 µM. For the same molecule, the TGI (MALME-3M melanoma) was 38.8 µM, the TGI (MOLT-4 leukemia) was 42.5 µM and the TGI (NCI-H226 lung) was 36.6 µM. For the same molecule, the TGI (NCI-H23 lung) was 31.8 µM, the TGI (NCI-H460 lung) was 34.7 µM and the TGI (NCI-H522 lung) was 32 µM. The TGI (OVCAR-3 ovarian) was 38.1 µM, the TGI (OVCAR-4 ovarian) was 34.3 µM and the TGI (OVCAR-5 ovarian) was 34.5 µM. For the same molecule, the TGI (OVCAR-8 ovarian) was > 100 µM, the TGI (RXF 393 renal) was 43.4 µM and the TGI (SF-268 CNS) was 66.5 µM. The TGI (SF-295 CNS) was 34 µM, the TGI (SF-539 CNS) was 41 µM and the TGI (SK-MEL-2 melanoma) was 32.6 µM. The TGI (SK-MEL-28 melanoma) was 47.3 µM, the TGI (SK-MEL-5 melanoma) was 32.7 µM and the TGI (SK-OV-3 ovarian) was 40.5 µM. It also gave a TGI (SN12C renal) of 30.5 µM, a TGI (SNB-19 CNS) of 46.3 µM and a TGI (SNB-75 CNS) of 48.6 µM. For the same molecule, the TGI (SNB-78 CNS) was 64 µM, the TGI (SR leukemia) was 54.8 µM and the TGI (SW-620 colon) was 32.6 µM. It also gave a TGI (TK-10 renal) of 91.7 µM, a TGI (U251 CNS) of 33.2 µM and a TGI (UACC-257 melanoma) of 52.5 µM. For the same molecule, the TGI (UACC-62 melanoma) was 28.6 µM and the TGI (UO-31 renal) was 31.5 µM.
